Assay results as given in US20220071921A1, “COMPOUNDS FOR PREVENTING AND TREATING SKIN OR MUCOSAL AFFECTIONS HAVING AN INFLAMMATORY COMPONENT” (GIULIANI S.P.A., priority 2018, published 2022).

What was measured:
Dermcidin [1] = test: Microarray analysis of human microdissected scalp hair follicles; assay type: cell-based; conditions: sandal pentanol 500 μM, 6 hours, vs vehicle (0.1% DMSO)
Protocol: (§1) Human scalp samples were obtained 1 day after face-lifting procedure (i.e. after overnight transport from collaborating surgeons) and used at the same day for microdissecting human anagen VI scalp HFs. […] Microdissected human scalp HFs were cultured at 37° C. with 5% CO2 in a minimal media of William's E media (WEM, Gibco, Life technologies) supplemented with 2 mM of L-glutamine (Gibco), 10 ng/ml hydrocortisone (Sigma-Aldrich), 10 μg/ml insulin (Sigma-Aldrich) and 1% penicillin/streptomycin mix (Gibco) (WEM). After microdissection, the HFs were first incubated in WEM for 24 hrs for re-equilibration.
(§2) After 24 hours, WEM medium was replaced and HFs were treated with vehicle (0.1% DMSO), sandal pentanol 500 μM, for 3 or 5 days for (immuno-)histology or 6 hours for microarray. Culture medium was replaced every second day and after […], HFs were then embedded in cryomatrix (Fisher Scientific), and snap frozen in liquid nitrogen for (immuno-)histology.

Dermcidin [2] = test: Dermcidin immunofluorescent staining in human microdissected scalp hair follicle organ culture; assay type: cell-based; conditions: 500 μM, 3 and 5 days, ex vivo
Protocol: as §1, §2
OCT embedded samples were sectioned with a Leica cryostat. Dermicidin protein was detected using tissue sections fixed in 4% paraformaldehyde, pre-incubated with 10% of goat serum, and incubated with a mouse anti-human Dermcidin (Novus Biologicals, G-81, 1:200). Secondary antibody (Goat anti—mouse Alexa fluor 488) incubation was performed at room temperature for 45 min. Counterstaning with DAPI (1 μg/mL) was performed to visualize nuclei.

`CC1=CCC(CCC(C)C(C)O)C1(C)C` (stereo not drawn) [Sandalore, 3-methyl-5-(2,2,3-trimethylcyclopent-3-en-1-yl)pentan-2-ol] was tested, and the “Dermcidin expression increase (microarray)” value (Dermcidin [1]) was 77.6 folds, the “transcripts of AMPs genes (microarray)” value (Dermcidin [1]) was “up-regulated” and the “Dermcidin protein expression in hair follicle outer root sheath keratinocytes” value (Dermcidin [2]) was “increased”.
